How the values were obtained:
[1] = test system: LNCaP cells; experiment: MTT assay, cell viability; assay type: cell-based, human; conditions: increasing concentration, 48 hr, serum free RPMI 1640
Procedure: The effect of LY255283, BLT2 antagonist, on cell viability was examined by MTT assay. PWR-1E cells were seeded at a density of 1.0×10^4 cells/well and LNCaP cells were seeded at a density of 1.5×10^4 cells/well in 96-well culture dishes. After 36 hr, the medium was replaced with serum free RPMI 1640 and cells were stimulated with DMSO or LY255283 of increasing concentration. MTT (1 mg/mu) was added at 48 hr after LY255283 treatment and after 4 hr of further incubation the medium was replaced with DMSO. Then cells were incubated at room temperature for 10 min. The spectrophotometric absorbance of the samples was determined by using Ultra Multifunctional Microplate Reader at 540 nm. LNCaP cells and PWR-1E cells were stimulated with LY255283 of various concentration in serum free RPM11640.

[2] = test system: PWR-1E cells; experiment: cell counting with trypan blue; assay type: cell-based; conditions: 1 μM and 5 μM, serum free RPMI 1640
Procedure: The effect of LY255283 was observed by counting of cell number. The cells were grown in 6-well cluster dishes to 70% confluence with 10% FBS-supplemented medium. At day 0, the medium was replaced with serum free RPMI 1640 and cells were stimulated with DMSO or 1 μM and 5 μM LY255283. The cells were harvested at various intervals. Cells were washed with PBS and collected by brief trypsinization. Total cell number was determined by counting each sample in duplicate with a hemocytometer using trypan blue dye. The cells treated with LY255283 in serum free RPM11640 were harvested at various intervals. […] In contrast, PWR-1 E cells which expressed few level of BLT2 were not affected by LY255283.

[3] = test system: VEGF-induced angiogenesis; experiment: VEGF-induced angiogenesis (Matrigel plug, HUVEC tube formation and transmigration); parameters: species or system FVB mice; conditions: mouse, in vivo
Procedure: FVB wild-type mice or BLT2 TG mice (female, 8-10 wk old) were subcutaneously injected with 400 μl of growth factor-reduced Matrigel from BD Biosciences containing heparin (20 units) and the agents to be tested. After 7 days, the mice were killed, and the solidified Matrigel was excised, fixed in 10% formalin, embedded in paraffin, cut into 5-μm sections and stained with anti-vWF antibody according to the manufacturer's instructions in the Blood Vessel Staining Kit (Chemicon). Each stained Matrigel section was photographed using a BX51 microscope equipped with a DP71 digital camera (Olympus), and the area of vWF-positive blood vessels was calculated using Image J software.
Growth factor-reduced Matrigel (300 μl; BD Biosciences, San Diego, Calif.) was added to each 24-well plate and polymerized for 12 h at 37° C. […] After 12 hr, five randomly selected areas were photographed using a CKX41 microscope equipped with a DP71 digital camera, and tube lengths were measured and quantified using Image J software, the image processing program developed at the U.S. National Institutes of Health (NIH). […]
The cells were then allowed to migrate to the lower side of the chambers, which contained LTB4, 12(S)-HETE or VEGF. […] Cell migration was quantified by counting the cells on the lower side of the filter after they were photographed using a CKX41 microscope equipped with a DP71 digital camera. […]

[4] = test system: MDA-MB-231 breast cancer cells; experiment: Matrigel invasion assay; assay type: cell-based, human; conditions: antibody 20 μg/ml, LY255283 10 μM, 48 h
Procedure: LF-BLT2 IgG Ab were also tested to determine if they had anti-BLT2-neutralizing effect in a cancer cell invasion assay. The migration of MDA-MB-231 breast cancer cells through Matrigel matrix gel in the presence of anti-LF-BLT2 was examined. The upper chamber of transwells (8.0-μm membrane pores; Costar) were coated with 2.5 μg/ml Matrigel matrix gel (BD Biosciences) and incubated at 37° C. for 2 hr. A total of 5×10^4 cells in 100 μl of medium with 0.5% FBS were added to the upper chamber and allowed to migrate toward the bottom chamber, which contained medium with 10% FBS as a chemoattractant. MDA-MB-231 cells were stopped at 48 hr. Cells on the top surface of the membranes were removed using a cotton swab, and cells on the underside were fixed in methanol and stained with hematoxylin and eosin (H&E).

CCc1cc(C(C)=O)c(O)cc1OCCCCCC(C)(C)c1nnn[nH]1 [LY255283, 1-[5-ethyl-2-hydroxy-4-[[6-methyl-6-(1H-tetrazol-5-yl)heptyl]oxy]phenyl]-ethanone]
LNCaP cell viability (MTT) [1]: dose dependent reduction
number of PWR-1E cells [2]: not affected
VEGF-induced angiogenesis [3]: suppressed VEGF-induced angiogenesis
invasion activity [4]: showed inhibitory activity
